The target in assay [1] is T1, Muscarinic acetylcholine receptor M1 (Rattus norvegicus, UniProt P08482).
T1 sequence (P08482 whole entry): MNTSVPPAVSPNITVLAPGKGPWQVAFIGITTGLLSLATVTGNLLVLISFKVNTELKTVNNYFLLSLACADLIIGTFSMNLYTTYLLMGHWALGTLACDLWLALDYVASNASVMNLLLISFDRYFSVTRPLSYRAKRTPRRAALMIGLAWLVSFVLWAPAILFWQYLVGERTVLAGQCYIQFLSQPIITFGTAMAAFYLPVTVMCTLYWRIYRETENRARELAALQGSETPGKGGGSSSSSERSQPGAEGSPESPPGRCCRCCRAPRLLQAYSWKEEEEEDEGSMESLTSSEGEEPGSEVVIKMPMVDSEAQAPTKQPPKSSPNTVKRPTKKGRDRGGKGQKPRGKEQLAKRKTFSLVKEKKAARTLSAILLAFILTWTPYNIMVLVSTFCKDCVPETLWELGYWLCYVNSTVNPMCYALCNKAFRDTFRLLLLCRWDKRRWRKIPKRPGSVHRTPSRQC

The target of assay [2] is T2, Muscarinic acetylcholine receptor M2 (Rattus norvegicus, UniProt P10980).
T2 sequence (P10980 whole entry): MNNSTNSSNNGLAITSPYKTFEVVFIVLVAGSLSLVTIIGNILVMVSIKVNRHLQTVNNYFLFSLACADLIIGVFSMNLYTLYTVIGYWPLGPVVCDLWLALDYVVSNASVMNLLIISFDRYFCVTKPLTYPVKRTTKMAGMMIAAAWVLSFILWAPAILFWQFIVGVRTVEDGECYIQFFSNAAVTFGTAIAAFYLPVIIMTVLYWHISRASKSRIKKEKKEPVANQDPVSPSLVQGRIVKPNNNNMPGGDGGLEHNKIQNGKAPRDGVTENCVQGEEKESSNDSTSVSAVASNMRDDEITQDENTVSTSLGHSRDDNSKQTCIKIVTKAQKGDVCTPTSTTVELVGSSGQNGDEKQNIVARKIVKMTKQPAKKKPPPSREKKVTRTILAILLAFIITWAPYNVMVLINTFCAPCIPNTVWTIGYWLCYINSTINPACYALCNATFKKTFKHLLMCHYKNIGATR

In the case of `O[Si](CCCN1CCCCC1)(c1ccccc1)C1CCCCC1` (stereo not drawn) [HHSiD], in assay [1], the Ki (as a rule, a measure of affinity in units of concentration, obtained from inhibition or displacement) was 0.0148 µM.

Consider `CCN(CC)CC1CCCCN1CC(=O)N1c2ccccc2C(=O)Nc2cccnc21` (stereo not drawn) [(AF-DX 116) 11-[2-(2-Diethylaminomethyl-piperidin-1-yl)-acetyl]-5,11-dihydro-benzo[e]pyrido[3,2-b][1,4]diazepin-6-one], for which the figures for the inhibition constant (Ki) in assay [2] and in assay [1] were 0.0339 µM and 0.18 µM, respectively.

(Values after BindingDB's records for PubMed 2547939 (Abbott Laboratories, 1989).)
